The molecules below were run on LPA 18:2 (assay: Rat whole blood (plasma) LPA assay). Conditions: 2 h at 37° C., LPA 18:2 by LC-MS/MS.
Format: biochemical
Procedure: Whole blood is collected from rats or mouse by exsanguinations on sodium heparin tube, then after centrifugation at 3000 rpm for 15 min at 4° C., plasma is stored at −80° C. Compounds are diluted in DMSO in concentration dependent manner then 0.5 μL are dispensed into 96-well plate placed in ice. Plasma is defrosted on ice then 49.5 μL of plasma are added into the well containing 0.5 μL of compound (1% DMSO final). Plates are covered with a lid in polypropylene and incubated at +37° C., 5% CO2, for 2 h under gentle shaking (except controls which are stored at −20° C.).
At the end of the incubation, controls are defrosted in ice and transferred in the incubated plates for LC-MS/MS analysis with a non GLP-validated method. For the analysis, plasma proteins from a 10 μL incubated plates are precipitated with an excess of methanol containing the internal standard, LPA 17:0. After centrifugation, the corresponding supernatant is injected on a C18 column. Analytes are eluted out of the column under isocratic conditions. An API5500 QTRAP mass spectrometer (ABSciex™) is used for the detection of LPA 18:2. No calibration curve is prepared for LPA 18:2, however relative quantities are evaluated based on the peak area.

| SMILES | IC50 [nM] |
| --- | --- |
| CCc1nc2ccc(C3CCN(CC(=O)N(C)C)CC3)cn2c1N(C)c1nc(-c2ccc(F)cc2)c(C#N)s1 [Compound 145, 2-(4-(3-((5-cyano-4-(4-fluorophenyl)thiazol-2-yl)(methyl)amino)-2-ethylimidazo[1,2-a]pyridin-6-yl)piperidin-1-yl)-N,N-dimethylacetamide] | 0.01 to 100 |
| CCc1nc2ccc(C3CCN(S(C)(=O)=O)CC3)cn2c1N(C)c1nc(-c2ccc(F)cc2)c(C(=O)C(F)(F)F)s1 [Compound 160, 1-(2-((2-ethyl-6-(1-(methylsulfonyl)piperidin-4-yl)imidazo[1,2-a]pyridin-3-yl)(methyl)amino)-4-(4-fluorophenyl)thiazol-5-yl)-2,2,2-trifluoroethanone] | 0.01 to 100 |
| CCc1nc2ccc(N3CCOC3=O)cn2c1N(C)c1nc(-c2ccc(Cl)cc2)cs1 [Compound 206, 3-(3-((4-(4-chlorophenyl)thiazol-2-yl)(methyl)amino)-2-ethylimidazo[1,2-a]pyridin-6-yl)oxazolidin-2-one] | > 1000 |
| CCc1nc2ccc(C3=CCN(S(=O)(=O)CCCO)CC3)cn2c1N(C)c1nc(-c2ccc(F)cc2)cs1 [Compound 75, 3-(4-(2-ethyl-3-((4-(4-fluorophenyl)thiazol-2-yl)(methyl)amino)imidazo[1,2-a]pyridin-6-yl)-5,6-dihydropyridin-1(2H)-ylsulfonyl)propan-1-ol] | > 1000 |
| CCc1nc2ccc(N3CCN(CC(=O)N4CC(O)C4)CC3)cn2c1N(C)c1nc(-c2ccc(F)cc2)c(C#N)s1 [Compound 138, 2-((2-ethyl-6-(4-(2-(3-hydroxyazetidin-1-yl)-2-oxoethyl)piperazin-1-yl)imidazo[1,2-a]pyridin-3-yl)(methyl)amino)-4-(4-fluorophenyl)thiazole-5-carbonitrile] | 0.01 to 100 |
| CCc1nc2ccc(C3CCN(CC(=O)N4CC(CO)C4)CC3)cn2c1N(C)c1nc(-c2ccc(F)cc2)c(C#N)s1 [Compound 144, 2-((2-ethyl-6-(1-(2-(3-(hydroxymethyl)azetidin-1-yl)-2-oxoethyl)piperidin-4-yl)imidazo[1,2-a]pyridin-3-yl)(methyl)amino)-4-(4-fluorophenyl)thiazole-5-carbonitrile] | 0.01 to 100 |
| CCc1nc2ccc(C3CCN(CC(=O)N4CC(O)C4)CC3)cn2c1N(C)c1nc(-c2ccc(F)cc2)c(C#N)s1 [Compound 141, 2-((2-ethyl-6-(1-(2-(3-hydroxyazetidin-1-yl)-2-oxoethyl)piperidin-4-yl)imidazo[1,2-a]pyridin-3-yl)(methyl)amino)-4-(4-fluorophenyl)thiazole-5-carbonitrile] | 0.01 to 100 |
| CCc1nc2ccc(C3CCN(S(C)(=O)=O)CC3)cn2c1N(C)c1nc(-c2ccc(F)cc2C#N)cs1 [Compound 96, 2-(2-((2-ethyl-6-(1-(methylsulfonyl)piperidin-4-yl)imidazo[1,2-a]pyridin-3-yl)(methyl)amino)thiazol-4-yl)-5-fluorobenzonitrile] | 0.01 to 100 |
| CCc1nc2cc(F)c(N3CCN(CC(=O)N4CC(O)C4)CC3)cn2c1N(C)c1nc(-c2ccc(F)cc2)c(C#N)s1 [Compound 18, 2-[(2-Ethyl-7-fluoro-6-{4-[2-(3-hydroxy-azetidin-1-yl)-2-oxo-ethyl]-piperazin-1-yl}-imidazo[1,2-a]pyridin-3-yl)-methyl-amino]-4-(4-fluoro-phenyl)-thiazole-5-carbonitrile] | 0.01 to 100 |
| CCc1nc2ccc(C3CCN(CC(=O)N4CC(O)C4)CC3)cn2c1N(C)c1nc(-c2ccc(F)cc2)c(CO)s1 [Compound 156, 2-(4-(2-ethyl-3-((4-(4-fluorophenyl)-5-(hydroxymethyl)thiazol-2-yl)(methyl)amino)imidazo[1,2-a]pyridin-6-yl)piperidin-1-yl)-1-(3-hydroxyazetidin-1-yl)ethanone] | > 1000 |
| CN(c1nc(-c2ccc(F)cc2)c(CO)s1)c1c(CCC#N)nc2ccc(C3CCN(S(C)(=O)=O)CC3)cn12 [Compound 175, 3-(3-((4-(4-fluorophenyl)-5-(hydroxymethyl)thiazol-2-yl)(methyl)amino)-6-(1-(methylsulfonyl)piperidin-4-yl)imidazo[1,2-a]pyridin-2-yl)propanenitrile] | 0.01 to 100 |
| CCc1nc2ccc(C3CCN(CC(=O)N4CC[C@@H](O)C4)CC3)cn2c1N(C)c1nc(-c2ccc(F)cc2)c(C#N)s1 [Compound 142, (R)-2-((2-ethyl-6-(1-(2-(3-hydroxypyrrolidin-1-yl)-2-oxoethyl)piperidin-4-yl)imidazo[1,2-a]pyridin-3-yl)(methyl)amino)-4-(4-fluorophenyl)thiazole-5-carbonitrile] | 0.01 to 100 |
| CCc1nc2c(F)cc(N3CCN(CC(=O)N4CC(O)C4)CC3)cn2c1N(C)c1nc(-c2ccc(F)cc2)cs1 [Compound 14, 2-(4-(2-ethyl-8-fluoro-3-((4-(4-fluorophenyl)thiazol-2-yl)(methyl)amino)imidazo[1,2-a]pyridin-6-yl)piperazin-1-yl)-1-(3-hydroxyazetidin-1-yl)ethanone] | 0.01 to 100 |
| CCc1nc2ccc(C3=CCN(S(C)(=O)=O)CC3)cn2c1N(C)c1nc(-c2ccc(OC(F)(F)F)cc2)cs1 [Compound 72, N-(2-ethyl-6-(1-(methylsulfonyl)-1,2,3,6-tetrahydropyridin-4-yl)imidazo[1,2-a]pyridin-3-yl)-N-methyl-4-(4-(trifluoromethoxy)phenyl)thiazol-2-amine] | > 1000 |
| CCc1nc2ccc(N3CCS(=O)(=O)CC3)cn2c1N(C)c1nc(-c2ccc(Cl)cc2)cs1 [Compound 213, 4-(2-ethyl-3-((4-(4-chlorophenyl)thiazol-2-yl)(methyl)amino)imidazo[1,2-a]pyridin-6-yl)-thiomorpholine-1,1-dioxide] | > 1000 |

Second part, the molecule after the results:

| IC50 [nM] | SMILES |
| --- | --- |
| 0.01 to 100 | CCc1nc2ccc(C3CCN(CC(=O)N4CCCC4)CC3)cn2c1N(C)c1nc(-c2ccc(F)cc2)cs1 [Compound 115, 2-(4-(2-ethyl-3-((4-(4-fluorophenyl)thiazol-2-yl)(methyl)amino)imidazo[1,2-a]pyridin-6-yl)piperidin-1-yl)-1-(pyrrolidin-1-yl)ethanone] |
| > 1000 | CCc1nc2ccc(N3CCN(S(=O)(=O)CCCN(C)C)CC3)cn2c1N(C)c1nc(-c2ccc(F)cc2)cs1 [Compound 56, N-(6-(4-(3-(dimethylamino)propylsulfonyl)piperazin-1-yl)-2-ethylimidazo[1,2-a]pyridin-3-yl)-4-(4-fluorophenyl)-N-methylthiazol-2-amine] |
| > 1000 | CCc1nc2ccc(N3CCN(CCO)CC3)cn2c1N(C)c1nc(-c2ccc(F)cc2)cs1 [Compound 180, 2-(4-(2-ethyl-3-((4-(4-fluorophenyl)thiazol-2-yl)(methyl)amino)imidazo[1,2-a]pyridin-6-yl)piperazin-1-yl)ethanol] |
| > 1000 | CCc1nc2ccc(N3CCN(CC(=O)N4CC[C@@H](O)C4)CC3)cn2c1N(C)c1nc(-c2ccc(F)cc2)cs1 [Compound 26, (R)-2-(4-(2-ethyl-3-((4-(4-fluorophenyl)thiazol-2-yl)(methyl)amino)imidazo[1,2-a]pyridin-6-yl)piperazin-1-yl)-1-(3-hydroxypyrrolidin-1-yl)ethanone] |
| > 1000 | CCc1nc2ccc(N3CCN(C(=O)C4CCCN4)CC3)cn2c1N(C)c1nc(-c2ccc(F)cc2)cs1 (centres unmarked) [Compound 46, (4-(2-ethyl-3-((4-(4-fluorophenyl)thiazol-2-yl)(methyl)amino)imidazo[1,2-a]pyridin-6-yl)piperazin-1-yl)(pyrrolidin-2-yl)methanone] |
| > 1000 | CCc1nc2ccc(N3CCN(C(=O)CCCN(C)C)CC3)cn2c1N(C)c1nc(-c2ccc(F)cc2)cs1 [Compound 53, 4-(dimethylamino)-1-(4-(2-ethyl-3-((4-(4-fluorophenyl)thiazol-2-yl)(methyl)amino)imidazo[1,2-a]pyridin-6-yl)piperazin-1-yl)butan-1-one] |
| > 1000 | CCc1nc2ccc(N3CCN(S(=O)(=O)CCCO)CC3)cn2c1N(C)c1nc(-c2ccc(F)cc2)cs1 [Compound 58, 3-(4-(2-ethyl-3-((4-(4-fluorophenyl)thiazol-2-yl)(methyl)amino)imidazo[1,2-a]pyridin-6-yl)piperazin-1-ylsulfonyl)propan-1-ol] |
| > 1000 | CCc1nc2ccc(N3CCN(C(=O)C4CCN(C(C)=O)C4)CC3)cn2c1N(C)c1nc(-c2ccc(F)cc2)cs1 (centres unmarked) [Compound 48, 1-{3-[4-(2-Ethyl-3-{[4-(4-fluoro-phenyl)-thiazol-2-yl]-methyl-amino}-imidazo[1,2-a]pyridin-6-yl)-piperazine-1-carbonyl]-pyrrolidin-1-yl}-ethanone] |
| > 1000 | CCc1nc2ccc(N3CCN(S(C)(=O)=O)CC3)cn2c1N(C)c1nc(-c2ccc(F)cc2)cs1 [Compound 54, N-(2-ethyl-6-(4-(methylsulfonyl)piperazin-1-yl)imidazo[1,2-a]pyridin-3-yl)-4-(4-fluorophenyl)-N-methylthiazol-2-amine] |
| > 1000 | CCc1nc2ccc(N3CCN(CCO)CC3)cn2c1N(C)c1nc(-c2ccc(Cl)cc2)cs1 [Compound 212, 2-(4-(3-((4-(4-chlorophenyl)thiazol-2-yl)(methyl)amino)-2-ethylimidazo[1,2-a]pyridin-6-yl)piperazin-1-yl)ethanol] |
| > 1000 | CCc1nc2cc(F)c(N3CCN(CC(=O)N4CC(O)C4)CC3)cn2c1N(C)c1nc(-c2ccc(F)cc2)cs1 [Compound 19, 2-[4-(2-Ethyl-7-fluoro-3-{[4-(4-fluoro-phenyl)-thiazol-2-yl]-methyl-amino}-imidazo[1,2-a]pyridin-6-yl)-piperazin-1-yl]-1-(3-hydroxy-azetidin-1-yl)-ethanone] |

From patent publication US11072611B2, “Compounds and pharmaceutical compositions thereof for the treatment of inflammatory disorders” (Galapagos NV, priority 2013, dated 2021)
